PubChem BioAssay (NCI)
Values joined by “and” are separate entries in the source; they are usually repeats but may differ in a detail not shown here. Identical values can stand only once.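 The compound was tested at five concentrations on cells cultured in 96-well plates, with a 48-hour exposure period. GI50: concentration for 50% inhibition of growth. TGI is the concentration that stops growth completely.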

How the values were obtained:
Test in all cases: NCI anticancer screen, dose series, 48 h
IGROV1 ovarian = tested on: IGROV1 ovarian
LOX IMVI melanoma = tested on: LOX IMVI melanoma
MCF7 breast = tested on: MCF7 breast
NCI-H23 lung = tested on: NCI-H23 lung
OVCAR-8 ovarian = tested on: OVCAR-8 ovarian
RPMI-8226 leukemia = tested on: RPMI-8226 leukemia
SW-620 colon = tested on: SW-620 colon
TK-10 renal = tested on: TK-10 renal
UACC-62 melanoma = tested on: UACC-62 melanoma
HOP-62 NSCLC = tested on: HOP-62 NSCLC

SMILES	TGI (IGROV1 ovarian)	TGI (LOX IMVI melanoma)	TGI (MCF7 breast) [µM]	TGI (NCI-H23 lung)	TGI (OVCAR-8 ovarian)	TGI (RPMI-8226 leukemia) [µM]	TGI (SW-620 colon)	TGI (TK-10 renal) [µM]	TGI (UACC-62 melanoma) [µM]	TGI (HOP-62 NSCLC)	GI50 (HOP-62 NSCLC)	GI50 (IGROV1 ovarian) [µM]	GI50 (MCF7 breast) [µM]	GI50 (NCI-H23 lung) [µM]	GI50 (OVCAR-8 ovarian)	GI50 (SW-620 colon) [µM]	GI50 (UACC-62 melanoma) [µM]	GI50 (LOX IMVI melanoma) [µM]	GI50 (RPMI-8226 leukemia) [µM]	GI50 (TK-10 renal) [µM]
CCOC(=O)c1c(NCc2ccccc2)n(-c2ccccc2)c(=S)n(-c2ccccc2)c1=O	> 100 µM	> 100 µM	> 100	> 100 µM	> 100 µM	> 100	> 100 µM	> 100	> 100											
COC1(C)C(=O)N2C1N(C(=O)OCc1ccccc1)CC2(C)C (stereo not given)	> 100 µM	> 100 µM		> 100 µM	> 100 µM	> 100	> 100 µM	> 100	> 100	> 100 µM										
COc1cccc2c1[C@H]1CO[C@H]3C4C[C@H](C(=O)O)C([C@@H](C2)N13)N4C (stereo not given in full)	9.94 µM and 1.59 µM	3.29 µM and > 23.9 µM	10	5.47 µM and 1.63 µM	7.05 µM and 34.4 µM		8.4 µM and 5.82 µM	5.71		9.75 µM and 5.44 µM	3.92 µM and 1.72 µM	0.551	0.296	0.564	2.81 µM and 0.888 µM	3.61	0.0475			
CCN(CC)CCCC(C)Nc1c(Sc2cnc3cc(Cl)ccc3c2NC(C)CCCN(CC)CC)cnc2cc(Cl)ccc12 (stereo not given)	3.51 µM	3.36 µM		9.25 µM	3.15 µM	4.55	2.92 µM	3.24	3.13											
N.N.N.N.N.O=S(=O)([O-])C(F)(F)F.O=S(=O)([O-])C(F)(F)F.[Os+8]	64.1 µM	20 µM		19.1 µM	86.7 µM	> 100	41.4 µM	95.4	28.2	20 µM	6.34 µM	21.3		5.07	13.5 µM	8.48	12.1	4.74	8.7	33
CCCCc1c2c(nc3c1CCc1cc4cc5c(nc4nc1-3)-c1nc3c(c(CCCC)c1CC5)CCC/C3=C\c1ccccc1)/C(=C/c1ccccc1)CCC2	> 100 µM	> 100 µM		> 100 µM	> 100 µM	> 100	> 100 µM	> 100	> 100	> 100 µM										
N/C(=N\c1nc2ccccc2s1)NC(=NC1CCCCC1)NC1CCCCC1	2.95 µM	2.99 µM	2.83	3.38 µM	4.98 µM		3.33 µM	3.28	3.01	3.99 µM	1.78 µM	1.46	1.46	1.75	1.97 µM	1.65	1.61	1.61		1.64
Nc1ccc(C(=O)NN2C(=O)C(Cl)C2c2cccc(O)c2)cc1 (stereo not given)	28.6 µM	16.2 µM		33.2 µM	54.4 µM	41.7	36.6 µM	30.5	32	30.7 µM										
CC1(C)CC2=C(Sc3ccccc3N2)C(=O)C1C(=O)C(=O)Nc1cc(Cl)ccc1Cl (stereo not given)	> 100 µM	> 100 µM	> 100	> 100 µM	> 100 µM	> 100	> 100 µM		> 100											
Cc1cc(C)nc(NS(=O)(=O)c2ccc(NC(=O)c3cccn4c(=O)c5ccccc5nc34)cc2)n1	> 100 µM	91.8 µM		> 100 µM	85.2 µM		> 100 µM	> 100	51.9	> 100 µM										
COCCOCOC(C)(C)[C@H](CCOC(C)=O)O[Si](c1ccccc1)(c1ccccc1)C(C)(C)C	> 100 µM	27.6 µM		80 µM	75.2 µM	15.1	> 100 µM	87.1	55.3	66.7 µM										
COc1ccc2c(c1)C(=O)c1c-2c(N2CCNCC2)nc2ccccc12	8.7 µM	3.5 µM	2.58		23.4 µM	3.39	2.6 µM	23.6	12.1			2.37	1.28		5.81 µM	1.32	3.55	1.79	1.64	8.36
COc1ccc(Cc2nc3ccccc3s2)cc1OC	35.7 µM			40.4 µM	30.9 µM	70.9	32.7 µM	84.7	31.4	93.5 µM										
CC(=O)[CH-]C(=O)Nc1ccccc1.CC(=O)[CH-]C(=O)Nc1ccccc1.CC[O-].CC[O-].[Ti+4]	> 100 µM	> 100 µM		> 100 µM	> 100 µM		> 100 µM	> 100	> 100	> 100 µM	> 100 µM	> 100		> 100	> 100 µM	> 100	> 100	> 100		> 100
Cc1ccc(NC(=O)CC2SC(N)=NC2=O)cc1C (stereo not given)	> 100 µM	> 100 µM		> 100 µM	> 100 µM	> 100	> 100 µM	> 100	> 100	> 100 µM										
C/C(=C\Cc1cc(O)ccc1O)CCc1c(C)c(O)c(O)c(C=O)c1C	41.3 µM			44.7 µM	47 µM	80.3	> 100 µM	> 100												
CC(=O)NNc1nc(C)c(C(=O)/C=C/c2ccc(/C=C/C(=O)c3sc(NNC(C)=O)nc3C)cc2)s1	> 100 µM	> 100 µM		> 100 µM	> 100 µM		> 100 µM	> 100	> 100	> 100 µM										
Nc1ncnc2c1nnn2C1C=C(CO)C(O)C1O (stereo not given)	> 100 µM	> 55.3 µM		> 100 µM	> 100 µM	> 62.7	> 63.1 µM	> 100	> 100	> 100 µM										
O/N=C1\CCc2nonc2\C1=N/Nc1ccccc1	> 100 µM	> 100 µM		> 100 µM	> 100 µM	> 100	> 100 µM	> 100	> 100	> 100 µM										
CN1CCc2c1nc(-c1cccnc1)c1c2N(C)CC1	> 100 µM	> 100 µM		> 100 µM	> 100 µM	> 100	> 100 µM	> 100	> 100	> 100 µM										

SMILES	TGI (IGROV1 ovarian)	TGI (LOX IMVI melanoma)	TGI (MCF7 breast) [µM]	TGI (NCI-H23 lung)	TGI (OVCAR-8 ovarian)	TGI (RPMI-8226 leukemia) [µM]	TGI (SW-620 colon)	TGI (TK-10 renal) [µM]	TGI (UACC-62 melanoma) [µM]	TGI (HOP-62 NSCLC)	GI50 (HOP-62 NSCLC)	GI50 (IGROV1 ovarian) [µM]	GI50 (MCF7 breast) [µM]	GI50 (NCI-H23 lung) [µM]	GI50 (OVCAR-8 ovarian)	GI50 (SW-620 colon) [µM]	GI50 (UACC-62 melanoma) [µM]	GI50 (LOX IMVI melanoma) [µM]	GI50 (RPMI-8226 leukemia) [µM]	GI50 (TK-10 renal) [µM]
O=C(COc1ccc(Cl)cc1)N1CCN(C(=O)COc2ccc(Cl)cc2)c2ccccc21	> 100 µM	> 100 µM		> 100 µM	> 100 µM	> 100	> 100 µM	> 100		> 100 µM										
Nc1cc2cccc[n+]2c2cccc(Cl)c12				65.6 µM					59.8			69.9	19.4	14.3	24.1 µM	34.2	24.7		21.3	94.7
CCC1C(=O)OCc2c1cc1n(c2=O)C(CC)c2c-1nc1ccccc1c2Cl (stereo not given)	> 100 µM	> 100 µM		> 100 µM		50	> 100 µM	> 100	> 100	87.1 µM										
CC(=O)Nc1ccc(C(=O)N2N=C(C)/C(=C/c3cccc([N+](=O)[O-])c3)C2=O)cc1		> 100 µM		> 100 µM	> 100 µM	> 100	> 100 µM	> 100		> 100 µM										
NC(=O)C12CC3CC(CC(Br)(C3)C1)C2	> 100 µM	> 100 µM		> 100 µM	> 100 µM	> 100	> 100 µM	> 100	> 100	> 100 µM										
CC(C)=Nn1cnc(C(=N)C#N)c1N	> 100 µM		> 100	> 100 µM	> 100 µM	> 100	> 100 µM	> 100	> 100	> 100 µM										
CCC[CH2][Sn]([CH2]CCC)([O]C(=O)/C=C/c1ccccc1F)[O]C(=O)/C=C/c1ccccc1F	1.66 µM	0.906 µM		0.56 µM	2.2 µM	1.2	0.479 µM	2.03	2.59	4.71 µM	2.12 µM	0.585		0.198	0.98 µM	0.205	1.17	0.289	0.222	0.898
Cc1cc(NC(=O)c2cnc(N3CCN(CCOCCOCCOCCOCCC(=O)N[C@H](C(=O)N4C[C@H](O)C[C@H]4C(=O)N[C@@H](C)c4ccc(-c5scnc5C)cc4)C(C)(C)C)CC3)cn2)c2ncccc2c1	8.17 µM	3.39 µM	> 100	15.8 µM	> 100 µM		5.65 µM	53.4	3.36			2.39	3.14	3.57	3.38 µM	2.38	1.71	1.84		10.7
Cc1ccc(Sc2oc(-c3ccc(C)cc3)nc2[P+](c2ccccc2)(c2ccccc2)c2ccccc2)cc1		0.323 µM	1.09	1.02 µM	1.65 µM	1.35	1.32 µM	1.85	1.5				0.286	0.298	0.345 µM	0.338	0.398	0.166	0.308	0.447
C#C[C@H]1CCCCCC1O (stereo not given in full)	> 100 µM	> 100 µM		> 100 µM	> 100 µM		69.8 µM	> 100	> 100	> 100 µM										
CSCCCNC(=O)c1csc(-c2csc(CCNC(=O)CNC(=O)CNC(=O)CNC(=O)OC(C)(C)C)n2)n1	> 100 µM	> 100 µM	> 100	> 100 µM	> 100 µM		> 100 µM	> 100	> 100	> 100 µM										
COC(=O)/C(C#N)=C1\CCc2ccccc21	> 100 µM	> 100 µM		> 100 µM	> 100 µM	> 100	> 100 µM	> 100	> 100											
CCN(CC)CCC(CNc1c(C)cnc2cc(Cl)ccc12)c1ccc(Cl)cc1 (stereo not given)			16.3	24.1 µM	25.5 µM	13.6	19.6 µM	23.8	5.16	23.8 µM	10.6 µM		3.27	10.3	10.8 µM	4.91	2.23		2.96	10.9
COc1ccc(-c2onc(-c3c(C)cc(C)cc3C)c2C2=NCCN2)cc1	> 100 µM	> 100 µM		> 100 µM	> 100 µM	> 100	> 100 µM		> 100	> 100 µM										
O=C(NCC(=O)N1CCOC1=O)OCc1ccccc1	> 100 µM	> 100 µM		> 100 µM	> 100 µM	> 100	> 100 µM	> 100	> 100	> 100 µM										
COC(=O)C#CCC1CCCC1C1SCCS1 (stereo not given)	> 100 µM	> 100 µM		> 100 µM	> 100 µM		> 100 µM	> 100	> 100	> 100 µM										
CC1C2CC(C/C2=N/O)C1(C)C (stereo not given)	> 100 µM		> 100	> 100 µM	> 100 µM		> 100 µM	> 100	> 100	> 100 µM										
COC/N=C(/N)NC#N	> 100 µM			> 100 µM	> 100 µM	> 100	33.6 µM	> 100	> 100	> 100 µM										
CC1=NN(C(=O)c2ccc(Cl)cc2)C(=O)/C1=C/c1ccc(Cl)cc1	> 100 µM	> 100 µM		> 100 µM	> 100 µM	> 100	> 100 µM	> 100	> 100	> 100 µM										
C=C1C(=O)O[C@H]2[C@H]1CC/C(CNC(=O)/C=C/c1ccccc1)=C\CC[C@@]1(C)O[C@@H]21	5.01 µM	2.29 µM		3.9 µM	9.78 µM	3.9	2.32 µM	3.03	2.76	14 µM	3.37 µM	1.7		1.73	2.44 µM	0.577	1.37	0.997	0.71	1.42
